Key:
[1] = test system: Notch target genes (Hes1, Hey1, HeyL and TGFβ1); test: qRT-PCR of Notch target genes in MC3T3-E1 osteoblasts FACS-separated from cocultures; assay type: cell-based, mouse; settings: osteoblasts FACS-separated from JAG1 OE coculture; FIG. 7B
Method: For gene expression analysis, MC3T3-E1 cells were grown to confluence in 10 cm culture dishes. The 2×10^5 GFP+ control or JAG1 OE cells were seeded onto the plate in osteoblast media. Cell sorting was performed to purify the GFP-negative MC3T3-E1 osteoblasts 5 days after initial coculture. RNA from FACS-separated MC3T3-E1 cells was collected in RLT lysis buffer, extracted with RNeasy Mini Kit (QIAGEN), and subjected to quantitative RT-PCR.
RNA from in vitro cultured cells or flow cytometry-separated cells was collected in RLT lysis buffer and extracted with RNeasy mini kit (Qiagen). RNA extraction from in vivo tissue samples was performed using Trizol (Invitrogen) according to the manufacturer's protocol. cDNA synthesis of RNA was performed using Superscript III First-Strand (Invitrogen). Quantitative RT-PCR was performed using Power Syber Green PCR Master Mix (Applied Biosystems) with the ABI Prism 7900HT thermocycler (Applied Biosystems) according to the manufacturer's protocol. A standard curve for each gene was generated by serial dilutions of a standard. Values were then normalized by the amount of GAPDH or β-actin in each sample. For in vivo samples, species-specific primers were employed for gene expression analysis in the tumor compartment (human) versus stroma compartment (mouse).

[2] = test system: SCP28 tumor cells cocultured with MC3T3-E1 osteoblasts; test: Osteoblast coculture tumor cell quantification by luciferase assay; assay type: cell-based, human; settings: luciferase assay after 6 days; MRK-003 1 μM or 5 μM; anti-IL-6 0.5 and 1.0 μg/ml
Method: MC3T3-E1 cells were seeded at 2×10^5 cells/well in 12-well plates. After confluence was achieved, luciferase/GFP-labeled (GFP+) control and JAG1 OE cells were added at 1×10^4 cells/well in triplicate and treated with DMSO or 1 μM MRK-003. Media supplemented with appropriate drugs were changed every 2 days. After 6 days the coculture was subjected to a luciferase assay to selectively quantify the number of tumor cells. These values were normalized against luciferase quantification of 12-well plates seeded with tumor cells alone.
For transfection experiments, MC3T3-E1 osteoblasts were seeded at 2×10^5 cells/well in 12-well plates and grown to 95% confluence. […] Following 6 days, the coculture was lysed and subjected to a luciferase assay to selectively quantify the number of tumor cells. For gene expression analysis, RNA from cocultures was collected in RLT lysis buffer, extracted with RNeasy mini kit (Qiagen), and subjected to quantitative RT-PCR.
For in vitro experiments, GSI-IX (Calbiochem) and TGFβ Receptor 1 (EMD Biosciences 616451) were dissolved in DMSO. […] RNA and protein were collected and analyzed for JAGGED1 expression as described above. […]

[3] = test system: MDA231 sublines (SCP28 tumor cells); test: Proliferation of tumor cells cultured alone; assay type: cell-based, human
[4] = test system: Notch; settings: Tammam et al., 2009; cited from earlier work
[5] = LoRusso et al, AACR 2009; cited from earlier work

O=S1(=O)N[C@@]2(CN1CC(F)(F)F)[C@@H]1CC[C@H]2Cc2ccc(/C=C/CN3CCC(C(F)(F)F)CC3)cc2C1 [MRK-003]
Notch target genes (Hes1, Hey1, HeyL and TGFβ1) mRNA in osteoblasts [1]: downregulated | growth advantage of JAG1 OE tumor cells in osteoblast coculture [2]: abolished | proliferative ability of tumor cells cultured alone ([3]; JAG1 OE SCP28 without osteoblasts, FIGS. 9B-9C): did not affect | proliferation assays of MDA231 sublines, control vs treated ([3]; relatively low concentrations sufficient to inhibit Notch in bone-specific cells): no difference | duration of target engagement sufficient to induce potent Notch inhibition [4]: 48 h | clinical responses with once-weekly dosing [5]: strong clinical responses | tolerability of once-weekly dosing in the clinic [5]: well-tolerated
